Reference: patent US5397787A, “Vinylene-azaindole derivatives” (Farmitalia Carlo Erba S.R.L., priority 1992, dated 1995)

Biological target: p45 v-abl tyrosine kinase
Assay: Exogenous Substrate Kinase Assay: p45 v-abl kinase inhibition, (Val5)-Angiotensin II phosphorylation
Type: biochemical, Abelson murine leukemia virus
Settings: (Val^5)-Angiotensin II 2 mM, ATP 50 μM, pH 8.0, 30° C., triplicate determinations
Protocol: The enzyme used in our test was the p45 v-abl tyrosine kinase which represents the catalytic domain of the Abelson tyrosine kinase (isolated from the Abelson murine leukemia virus). The p45 v-abl kinase was produced and isolated as described by Wang et al. in J. Biol. Chem. 260, 64 (1985) and by Ferguson et al. in J. Biol. Chem. 260, 3652 (1985) and in Biochem. J. 257, 321 (1989).
(Val^5)-Angiotensin II phosphorylation was performed by incubation with 40 ng of purified abl-kinase and (γ-^32 P)-ATP, in 50 μl of buffer containing Tris-HCl 25 mM, pH 8.0, MgCl2 10 mM and dithiothreitol 0.1 mM (kinase buffer). The reaction mixture was incubated for the indicated time at 30° C. and the reaction stopped by adding 50 μl of 5% trichloroacetic acid.
After a brief incubation on ice, tubes were centrifuged. The supernatants were spotted on phosphocellulose paper squares (Whatman P-81) and washed extensively in acetic acid. The radioactivity bound to dried phosphocellulose squares was measured in a liquid scintillation counter. IC50 values were calculated from triplicate determinations of each experimental point. Each inhibitor was tested at concentrations ranging from […] in the presence of fixed concentrations of peptide (2 mM) and ATP (50 μM).

Row | Structure (SMILES) | IC50
1 | N#CC(=Cc1c[nH]c2ncccc12)C(N)=O [2-cyano-3-(7-azaindol-3-yl)acrylamide] | 4700 nM
2 | O=C1Nc2ccccc2/C1=C/c1c[nH]c2ncccc12 [3-[(7-azaindol-3-yl)methylen]-2-oxindole, (Z)-3-[(7-azaindol-3-yl)methylen]-2-oxindole] | 50 nM
